The values that follow come from US5079376A, “Novel substance UCT-1003 and process for producing the same” (Kyowa Hakko Kogyo, Ltd., priority 1989, dated 1992).

Values after ≈ are worked out from the molar mass of the structure shown.

The test system of series [1] is lymphocytic leukemia P388 tumor. Briefly: Anti-tumor activity against lymphocytic leukemia P388 tumor. The series is classed as in vivo, CDF1 mice. The conditions noted are these: mean survival days vs PBS control. The method, then: Five male CDF1 mice each having a weight of about 22 g were used for each group as test animals, and 1×10^6 cells of lymphocytic leukemia P388 tumor cells were intraperitoneally implanted into the animals. Phosphate solution saline (PBS) containing UCT-1003 (0.2 ml) was once administered intraperitoneally 24 hours after the implantation of tumor cells. The composition of PBS was 0.8 g/dl NaCl, 0.02 g/dl KCl, […] Na2 HPO4 and 0.02 g/dl KH2 PO4 (pH 7.2). For comparison, 0.2 ml of PBS containing mitomycin C was intraperitoneally administered 24 hours after the implantation of tumor cells. Increased life span determined from mean survival days after the implantation is shown in Table 3 as T/C (T: mean survival days of the test groups, C: mean survival days of the control group which received 0.2 ml of PBS intraperitoneally).

The subject of series [2] is Staphylococcus aureus ATCC 6538P. The series can be described thus: Antibacterial activity (MIC), agar dilution method, Staphylococcus aureus. The series is classed as cell-based. The conditions noted are these: ATCC6538P, pH 7, read-out: minimum inhibitory concentration (MIC). The protocol: (§1) The antibacterial activity was determined by the agar dilution method using a medium (pH 7) which comprises 3 g/l Bacto-Tryptone (Difco Laboratories), 3 g/l meat extract, 1 g/l yeast extract, 1 g/l glucose and 16 g/l agar.

Series [3] concerns Enterococcus faecium ATCC 10541. The series can be described thus: Antibacterial activity (MIC), agar dilution method, Enterococcus faecium. The class given is cell-based. The conditions noted are these: ATCC10541, pH 7, read-out: minimum inhibitory concentration (MIC). The method, then:
as §1
On the technique in general: Agar dilution tests growth on a series of plates holding different concentrations.

Series [4] concerns Bacillus subtilis No. 10707. Briefly: Antibacterial activity (MIC), agar dilution method, Bacillus subtilis. The class given is cell-based. As to conditions: pH 7, read-out: minimum inhibitory concentration (MIC). The protocol: as §1
Series [5] has as its system Klebsiella pneumoniae ATCC 10031. The series can be described thus: Antibacterial activity (MIC), agar dilution method, Klebsiella pneumoniae. The class given is cell-based. As to conditions: ATCC10031, pH 7, read-out: minimum inhibitory concentration (MIC). The protocol: as §1
The subject of a further series is Escherichia coli ATCC 26. The series can be described thus: Antibacterial activity (MIC), agar dilution method, Escherichia coli. The series is classed as cell-based. The conditions noted are these: ATCC26, pH 7, read-out: minimum inhibitory concentration (MIC). The method, then: as §1
The test system of series [6] is Shigella sonnei ATCC 9290. The series can be described thus: Antibacterial activity (MIC), agar dilution method, Shigella sonnei. The class given is cell-based. As to conditions: ATCC9290, pH 7, read-out: minimum inhibitory concentration (MIC). The method, then: as §1
The subject of series [7] is Salmonella typhi ATCC 9992. Briefly: Antibacterial activity (MIC), agar dilution method, Salmonella typhi. The series is classed as cell-based. As to conditions: Salmonella enterica, pH 7, read-out: minimum inhibitory concentration (MIC). The method, then:
as §1

The subject of a further series is T24 cells. The series can be described thus: Anti-tumor activity against T24 cells (growth inhibition, Neutral Red). The series is classed as cell-based. The conditions noted are these: Homo sapiens, T-24, 72 hours, 37° C. The protocol:
T24 cells were suspended in a medium comprising F10 medium (Gibco Co., Ltd.), 0.1 g/ml fetal calf serum, 100 units/ml penicillin and 100 ug/ml streptomycin (hereinafter referred to as medium A) to a concentration of 2×10^4 cells/ml. The cell suspension thus prepared was put into wells of a 96-well microtiter plate in the amount of 0.1 ml per well. After incubation at 37° C. for 20 hours in a CO2 -incubator, 0.05 ml of a test sample appropriately diluted with medium A was added to each well. The cells were further cultured at 37° C. for 72 hours in the CO2 -incubator and the culture supernatant was removed. To the residue was added a medium comprising medium A and 0.02% Neutral Red in the amount of 0.1 ml per well, followed by culturing at 37° C. for one hour in the CO2 -incubator, whereby the cells were stained. After removal of the culture supernatant, the residue was washed once with physiological saline.
The pigment was extracted with 0.001N hydrochloric acid/30% ethanol and absorbance at 550 nm was measured by using a microplate reader. The concentration of the test compound at which the growth of the cells is inhibited by 50% (IC50) was calculated by comparing the absorbance of untreated cells with those of the cells treated with the test compound at known concentrations.

The test system of the next series is HeLaS3 cells. The series can be described thus: Anti-tumor activity against HeLaS3 cells (growth inhibition, Neutral Red). As to conditions: Homo sapiens, HeLa S3, 72 hours. The class given is cell-based.
A short description of another series: Solubility in solvents. The series is classed as physicochemical.

As usually defined, the IC50 is the midpoint of a concentration-inhibition curve.

In the case of `CO[C@@]12[C@H](COC(N)=O)C3=C(C(=O)C(C)=C(N)C3=O)N1C[C@@H]1N[C@@H]12` [Mitomycin C, mitomycin C, reference compound], the “Increased life span (T/C)” value in series [1] (4 mg/kg, i.p. 24 hours after i.p. implantation) is listed as 1.57.

As for `O=C1c2cc(O)cc(O)c2C(=O)c2c1cc1cc(O)cc(O)c1c2O` [UCT-1003], the MIC was 2.6 µg/mL (≈ 7.69 µM) in series [2]; 2.6 µg/mL (≈ 7.69 µM) in series [3]; 83 µg/mL (≈ 245 µM) in [4]; greater than 100 µg/mL in [5]; greater than 100 µg/mL with Escherichia coli ATCC 26; greater than 100 µg/mL in [6]. Moreover, the MIC in series [7] is greater than 100 µg/mL. In addition, the half-maximal inhibitory concentration (IC50) in the series on T24 cells was 0.13 µg/mL (≈ 0.384 µM); in the series with HeLaS3 cells, 0.35 µg/mL (≈ 1.03 µM). Moreover, the “Increased life span (T/C)” value in [1] (12.5 mg/kg, single i.p. 24 hours after i.p. implantation) was 1.21; in series [1] (25 mg/kg, single i.p. 24 hours after i.p. implantation) it was 1.30; in series [1] (50 mg/kg, single i.p. 24 hours after i.p. implantation) it was 1.30. Further, the Solubility in solvents entry in “Solubility in solvents” (chloroform and ethyl acetate) is listed as “soluble”; in “Solubility in solvents” (dimethylsulfoxide, pyridine, methanol, ethanol and acetone), “Readily soluble”; in the series “Solubility in solvents” (water and n-hexane), “sparingly soluble”.
